Measured values: patent publication US20090156646A1, “PYRIDYLPHENOL COMPOUND AND USE THEREOF” (TAKEDA PHARMACEUTICAL COMPANY LIMITED, priority 2005, published 2009)
pIC50: −log10 of the molar value. Counter-ions that a name gives are not always drawn.

How the values were obtained:
[1] = biological target: T1, human metastin receptor hOT7T175 (Homo sapiens, UniProt Q969F8, L364H); experiment: binding inhibiting activity: 125I-metastin (40-54) binding to cell membrane fraction of h175 KB34 cells; conditions: room temperature 60 minutes, read-out: binding inhibiting activity, represented by the IC50 value
T1 construct: encoding the entire length of human metastin receptor hOT7T175; expressed in transfected cells; host or cells: CHO/dhFr- cells (ATCC #CRL-9096) stably transfected with pAKKO-hOT7T175; clone h175-16 was used as whole cells for FLIPR
Protocol: cDNA fragments (SEQ ID NO: 2) encoding the entire length of human metastin receptor hOT7T175 were incorporated into expression vector pAKKO1.11H to produce animal cell expression plasmids pAKKO-hOT7T175. CHO/dhFr-cells (ATCC, #CRL-9096) were seeded onto 6 cm culture dishes (Becton Dickinson) at a density of 0.3×10^6 cells/dish, and cultured in the conditions of 48 hours, 37° C. and 5% CO2. 5 μg pAKKO-hOT7T175 plasmid DNA was transfected to the resultant cells by a known method (described in Example 3 of WO 00/24890) using the Cellphect Transfection Kit (Amersham, #27-9268-01). The DNA-transfected cells were cultured in the Dulbecco's modified Eagle medium (DMEM) (Sigma, #D6046) containing 10% dialyzed FBS (Biowest, #S180D), 1× Non-Essential Amino Acid (Invitrogen, #11140-050) and 50 μg/ml Gentamycin (Invitrogen, #15750-060; and cell strains stably expressing the plasmid genes were selected. The obtained 41 clones were treated with the FLIPR assay (in accordance with the method described in Example 3 of WO 00/24890), and the reactivity to the human metastin […] (Nos. 40 to 54 of the human metastin sequence; Peptide Institute, Inc., #4389-v) was evaluated. In the end, h175 KB34 cell strains were selected. By substantially the same method, h175-16 cell strains were also produced.
The h175 KB34 cells were cultured to be on the stage of 40-50% confluency using a cell factory (Nunc, #164327), and then cells were recovered in the following method.
First, the medium was disposed, and the cells were washed twice with 200 ml EDTA/PBS(−). Another 200 ml of EDTA/PBS(−) was added, and the cells were kept still for 20 minutes at room temperature until being peeled off. The cells were recovered into four 50 ml tubes (Becton Dickinson, #352070), and centrifuged (2,000 rpm, 10 min., 4° C.) by a reduced performance centrifuge (TOMY, RL-101). The supernatant was disposed, and the pellets in the four tubes were each suspended with 10 ml EDTA/PBS(−) and collected into one tube (Becton Dickinson, #352070). The pellet was further centrifuged (2,000 rpm, 10 min., 4° C.). The resultant pellet was suspended with 20 ml ice-cooled homogenizer buffer [10 mM NaHCO3, 2 mM EGTA, 0.2 mM magnesium acetate, 10 μg/ml Leupeptin (Peptide Institute, Inc., #4041), 10 μg/ml E-64 (Peptide Institute, Inc., # 4096), 100 μg/ml o-phenanthroline (Dojindo Laboratories), 90 μg/ml PMSF (Wako Pure Chemical Industries, Ltd.), 10 μg/ml Pepstatin A (Peptide Institute, Inc., #4397), pH7.3]. The cell suspension was homogenized 3 times, each for 30 seconds, using a Polytron homogenizer. The resultant homogenate was centrifuged (2,500 rpm, 10 min, 4° C.) using a high performance refrigerated centrifuge (Hitachi, Ltd., CR26H). The supernatant was recovered into a super-centrifuge tube, and super-centrifuged (30,000 rpm, 60 min, 4° C.) using a super-centrifuge (Hitachi, Ltd., SCP70H). 3 ml homogenizer buffer was added to the resultant pellet, and the pellet was suspended by pipetting. 3 ml glycerol (Wako Pure Chemical Industries, Ltd.) was added to the resultant suspension and diluted 2-folds. The resultant substance was used as a cell membrane fraction of the h175 KB34 cells. Each […] of the membrane fraction was put into a 1.5 ml tube (Eppendorf, #0030120.086), stored in a freezer (−30 C) so as not to be frozen, and used for a binding assay.
An assay buffer was prepared on the day of the test by adding, to each 100 ml of an assay basic buffer [20 mM Tris, 2.5 mM Magnesium Acetate, 2 mM EGTA, pH 7.4], 1 mg Leupeptin (Peptide Institute, Inc., 4041), 1 mg E-64 (Peptide Institute, Inc., 4096), 10 mg o-phenanthroline (Dojindo Laboratories), 9 mg PMSF (Wako Pure Chemical Industries, Ltd.) and 1 mg Pepstatin A (Peptide Institute, Inc., 4397). The prepared assay buffer was stored at 4° C. until being used. When the measurement was to be performed with no BSA, the above-described assay buffer was used. […]

T1 sequence (Q969F8 whole entry L364H): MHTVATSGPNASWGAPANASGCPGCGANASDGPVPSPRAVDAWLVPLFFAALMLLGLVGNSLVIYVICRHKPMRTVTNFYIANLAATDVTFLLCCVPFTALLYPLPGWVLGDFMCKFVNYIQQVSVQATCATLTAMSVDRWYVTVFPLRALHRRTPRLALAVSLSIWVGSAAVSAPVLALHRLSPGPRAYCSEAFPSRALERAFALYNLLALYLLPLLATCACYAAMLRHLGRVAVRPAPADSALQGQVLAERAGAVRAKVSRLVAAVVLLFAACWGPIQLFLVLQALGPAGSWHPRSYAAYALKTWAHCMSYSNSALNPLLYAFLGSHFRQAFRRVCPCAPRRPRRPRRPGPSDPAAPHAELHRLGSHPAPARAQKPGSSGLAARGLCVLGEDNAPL

pIC50 [1]	melting point [°C]	SMILES
≥ 5.00	224 to 225	Cl.N#Cc1c(-c2cccc(NC(=O)[C@@H]3CCCC[C@@H]3N)c2)cc(-c2ccc(F)cc2O)nc1NC(=O)c1ccco1 (racemic) [Example 267, N-{4-[3-({[(1SR,2RS)-2-aminocyclohexyl]carbonyl}amino)phenyl]-3-cyano-6-(4-fluoro-2-hydroxyphenyl)pyridin-2-yl}-2-furamide hydrochloride]
≥ 5.00	224 to 226	Cl.N#Cc1c(-c2cccc(NC(=O)[C@H]3CCC[C@H]3N)c2)cc(-c2ccc(F)cc2O)nc1NC(=O)c1ccco1 (racemic) [Example 278, N-{4-[3-({[(1SR,2RS)-2-aminocyclopentyl]carbonyl}amino)phenyl]-3-cyano-6-(4-fluoro-2-hydroxyphenyl)pyridin-2-yl}-2-furamide hydrochloride]
≥ 5.00	250 to 252	Cl.N#Cc1c(-c2cccc(C(=O)N[C@H]3CCCC[C@H]3N)c2)cc(-c2ccc(F)cc2O)nc1NC(=O)c1ccco1 (racemic) [Example 280, N-{4-[3-({[(1SR,2RS)-2-aminocyclohexyl]amino}carbonyl)phenyl]-3-cyano-6-(4-fluoro-2-hydroxyphenyl)pyridin-2-yl}-2-furamide hydrochloride]
≥ 5.00	285 to 288	Cl.N#Cc1c(-c2cccc(C(=O)N[C@@H]3CCCC[C@H]3N)c2)cc(-c2ccc(F)cc2O)nc1NC(=O)c1ccco1 (racemic) [Example 289, N-{4-[3-({[(1SR,2SR)-2-aminocyclohexyl]amino}carbonyl)phenyl]-3-cyano-6-(4-fluoro-2-hydroxyphenyl)pyridin-2-yl}-2-furamide hydrochloride]
≥ 5.00	203 to 205	N#Cc1c(-c2cccc(CN)c2)cc(-c2ccccc2O)nc1NC(=O)c1cccs1 [Example 1, N-[4-[3-(aminomethyl)phenyl]-3-cyano-6-(2-hydroxyphenyl)pyridin-2-yl]thiophene-2-carboxamide]
≥ 5.00	225 to 226	CN(C)Cc1cccc(-c2cc(-c3ccccc3O)nc(NC(=O)c3cccs3)c2C#N)c1 [Example 2, N-[3-cyano-4-{3-[(dimethylamino)methyl]phenyl}-6-(2-hydroxyphenyl)pyridin-2-yl]thiophene-2-carboxamide]
≥ 5.00	–	Cl.N#Cc1c(-c2cccc(NC(=O)CC3CCCCN3)c2)cc(-c2ccc(F)cc2O)nc1NC(=O)c1ccco1 (centres unmarked) [Example 290, hydrochloride]
≥ 5.00	–	CN(C)CC(=O)Nc1cccc(-c2cc(-c3ccc(F)cc3O)nc(NC(=O)c3ccco3)c2CN(C)C)c1 [Example 300, N-[3-[(dimethylamino)methyl]-4-{3-[(N,N-dimethylglycyl)amino]phenyl}-6-(4-fluoro-2-hydroxyphenyl)pyridin-2-yl]-2-furamide dihydrochloride]
≥ 5.00	–	N#Cc1c(-c2cccc(NC(=O)[C@@H](N)CN)c2)cc(-c2ccc(F)cc2O)nc1NC(=O)c1ccco1 [Example 302, N-[4-{3-[(3-amino-L-alanyl)amino]phenyl}-3-cyano-6-(4-fluoro-2-hydroxyphenyl)pyridin-2-yl]-2-furamide dihydrochloride]
≥ 5.00	–	CCN(CC)CCN(CC)c1cccc(-c2cc(-c3ccc(F)cc3O)nc(NC(=O)c3ccco3)c2C#N)c1 [Example 304, N-[3-cyano-4-{3-[[2-(diethylamino)ethyl] (ethyl)amino]phenyl}-6-(4-fluoro-2-hydroxyphenyl)pyridin-2-yl]-2-furamide dihydrochloride]
≥ 5.00	–	CNCC(=O)Nc1cccc(-c2cc(-c3ccc(F)cc3O)nc(NC(=O)c3ccco3)c2C#N)c1 [Example 312, N-(3-cyano-6-(4-fluoro-2-hydroxyphenyl)-4-{3-[(N-methylglycyl)amino]phenyl}pyridin-2-yl)-2-furamide hydrochloride]
≥ 5.00	–	CNCCC(=O)Nc1cccc(-c2cc(-c3ccc(F)cc3O)nc(NC(=O)c3ccco3)c2C#N)c1 [Example 313, N-(3-cyano-6-(4-fluoro-2-hydroxyphenyl)-4-{3-[(N-methyl-β-alanyl)amino]phenyl}pyridin-2-yl)-2-furamide hydrochloride]
≥ 5.00	–	N#Cc1c(-c2cccc(NC(=O)C[C@H]3CCCN3)c2)cc(-c2ccc(F)cc2O)nc1NC(=O)c1ccco1 [Example 314, N-[3-cyano-6-(4-fluoro-2-hydroxyphenyl)-4-(3-{[(2R)-pyrrolidin-2-ylacetyl]amino}phenyl)pyridin-2-yl]-2-furamide hydrochloride]
≥ 5.00	–	CCCC(CC(=O)Nc1cccc(-c2cc(-c3ccc(F)cc3O)nc(NC(=O)c3ccco3)c2C#N)c1)N(CC)CC (centres unmarked) [Example 317, N-[3-cyano-4-(3-{[3-(diethylamino)hexanoyl]amino}phenyl)-6-(4-fluoro-2-hydroxyphenyl)pyridin-2-yl]-2-furamide hydrochloride]
≥ 5.00	–	CN(C)CCN(C)c1cccc(-c2cc(-c3ccc(F)cc3O)nc(NC(=O)c3ccco3)c2C#N)c1 [Example 324, N-[3-cyano-4-{3-[[2-(dimethylamino)ethyl] (methyl)amino]phenyl}-6-(4-fluoro-2-hydroxyphenyl)pyridin-2-yl]-2-furamide]
≥ 5.00	–	N#Cc1c(-c2cccc(CN3CCNCC3)c2)cc(-c2ccc(F)cc2O)nc1NC(=O)c1ccco1 [Example 325, N-{3-cyano-6-(4-fluoro-2-hydroxyphenyl)-4-[3-(piperazine-1-ylmethyl)phenyl]pyridin-2-yl}-2-furamide ditrifluoroacetic acid]
≥ 5.00	–	CCN1CCN(c2cccc(-c3cc(-c4ccc(F)cc4O)nc(NC(=O)c4ccco4)c3C#N)c2)CC1 [Example 330, N-[3-cyano-4-[3-(4-ethylpiperazin-1-yl)phenyl]-6-(4-fluoro-2-hydroxyphenyl)pyridin-2-yl]-2-furamide hydrochloride]
≥ 5.00	–	CN1CCN(Cc2cccc(-c3cc(-c4ccc(F)cc4O)nc(NC(=O)c4ccco4)c3C#N)c2)CC1 [Example 333, N-(3-cyano-6-(4-fluoro-2-hydroxyphenyl)-4-{3-[(4-methylpiperazin-1-yl)methyl]phenyl}pyridin-2-yl)-2-furamide dihydrochloride]
≥ 5.00	–	CCN1CCN(Cc2cccc(-c3cc(-c4ccc(F)cc4O)nc(NC(=O)c4ccco4)c3C#N)c2)CC1 [Example 334, N-[3-cyano-4-{3-[(4-ethylpiperazin-1-yl)methyl]phenyl}-6-(4-fluoro-2-hydroxyphenyl)pyridin-2-yl]-2-furamide dihydrochloride]
≥ 5.00	–	N#Cc1c(-c2cccc(CN3CCCNCC3)c2)cc(-c2ccc(F)cc2O)nc1NC(=O)c1ccco1 [Example 335, N-[3-cyano-4-[3-(1,4-diazepan-1-ylmethyl)phenyl]-6-(4-fluoro-2-hydroxyphenyl)pyridin-2-yl]-2-furamide dihydrochloride]
